In ChEMBL document CHEMBL4138123, “Design, synthesis and biological evaluation of novel pyrazolochalcones as potential modulators of PI3K/Akt/mTOR pathway and inducers of apoptosis in breast cancer cells” (Eur J Med Chem, 2017):

Assays:
Type in all cases: functional
ACHN [1] = test: Cytotoxicity against human ACHN cells assessed as cell growth at 100 uM after 48 hrs by sulforhodamine B assay relative to control; settings: read-out: Activity
ACHN [2] = test: Cytotoxicity against human ACHN cells assessed as cell growth at 10 uM after 48 hrs by sulforhodamine B assay relative to control; settings: read-out: Activity
HOP-62 = test: Cytotoxicity against human HOP62 cells assessed as cell growth at 0.01 uM after 48 hrs by sulforhodamine B assay relative to control; settings: HOP-62, 48 h, read-out: Activity
UACC-62 = test: Cytotoxicity against human UACC62 cells assessed as cell growth at 0.01 uM after 48 hrs by sulforhodamine B assay relative to control; settings: UACC-62, 48 h, read-out: Activity
T47D [3] = test: Cytotoxicity against human T47D cells assessed as cell growth at 1 uM after 48 hrs by sulforhodamine B assay relative to control; settings: read-out: Activity
NCI/ADR-RES = test: Cytotoxicity against human NCI/ADR-RES cells assessed as cell growth at 0.01 uM after 48 hrs by sulforhodamine B assay relative to control; settings: read-out: Activity
Malme-3M [4] = test: Cytotoxicity against human MALME-3M cells assessed as cell growth at 1 uM after 48 hrs by sulforhodamine B assay relative to control; settings: read-out: Activity
ACHN [5] = test: Cytotoxicity against human ACHN cells assessed as growth inhibition after 48 hrs by sulforhodamine B assay
T47D [6] = test: Cytotoxicity against human T47D cells assessed as cell growth at 10 uM after 48 hrs by sulforhodamine B assay relative to control; settings: read-out: Activity
PC-3 = test: Cytotoxicity against human PC3 cells assessed as cell growth at 10 uM after 48 hrs by sulforhodamine B assay relative to control; settings: PC-3, 48 h, read-out: Activity
K562 = test: Cytotoxicity against human K562 cells assessed as growth inhibition after 48 hrs by sulforhodamine B assay; settings: K562, 48 h
HCT-116 = test: Cytotoxicity against human HCT116 cells assessed as cell growth at 0.01 uM after 48 hrs by sulforhodamine B assay relative to control; settings: HCT-116, 48 h, read-out: Activity
COLO 205 = test: Cytotoxicity against human COLO205 cells assessed as growth inhibition after 48 hrs by sulforhodamine B assay; settings: COLO 205, 48 h
NCI-H226 [7] = test: Cytotoxicity against human NCI-H226 cells assessed as growth inhibition after 48 hrs by sulforhodamine B assay; settings: NCI-H226, 48 h
NCI-H226 [8] = test: Cytotoxicity against human NCI-H226 cells assessed as cell growth at 1 uM after 48 hrs by sulforhodamine B assay relative to control; settings: NCI-H226, 48 h, read-out: Activity
U-251 = test: Cytotoxicity against human U251 cells assessed as growth inhibition after 48 hrs by sulforhodamine B assay; settings: U-251, 48 h
BT-549 [9] = test: Cytotoxicity against human BT549 cells assessed as cell growth at 1 uM after 48 hrs by sulforhodamine B assay relative to control; settings: BT-549, 48 h, read-out: Activity
RPMI-8226 = test: Cytotoxicity against human RPMI8226 cells assessed as cell growth at 0.1 uM after 48 hrs by sulforhodamine B assay relative to control; settings: RPMI-8226, 48 h, read-out: Activity
HL-60(TB) = test: Cytotoxicity against human HL-60(TB) cells assessed as cell growth at 1 uM after 48 hrs by sulforhodamine B assay relative to control; settings: HL-60, 48 h, read-out: Activity
M14 = test: Cytotoxicity against human M14 cells assessed as cell growth at 0.01 uM after 48 hrs by sulforhodamine B assay relative to control; settings: M14, 48 h, read-out: Activity
DU-145 = test: Cytotoxicity against human DU145 cells assessed as cell growth at 0.1 uM after 48 hrs by sulforhodamine B assay relative to control; settings: DU-145, 48 h, read-out: Activity
MCF7 = test: Cytotoxicity against human MCF7 cells assessed as cell growth at 0.01 uM after 48 hrs by sulforhodamine B assay relative to control; settings: MCF7, 48 h, read-out: Activity
BT-549 [10] = test: Cytotoxicity against human BT549 cells assessed as cell growth at 10 uM after 48 hrs by sulforhodamine B assay relative to control; settings: BT-549, 48 h, read-out: Activity
SNB-19 = test: Cytotoxicity against human SNB19 cells assessed as cell growth at 0.01 uM after 48 hrs by sulforhodamine B assay relative to control; settings: SNB-19, 48 h, read-out: Activity
Malme-3M [11] = test: Cytotoxicity against human MALME-3M cells assessed as growth inhibition after 48 hrs by sulforhodamine B assay
BT-549 [12] = test: Cytotoxicity against human BT549 cells assessed as cell growth at 0.1 uM after 48 hrs by sulforhodamine B assay relative to control; settings: BT-549, 48 h, read-out: Activity
SF-268 = test: Cytotoxicity against human SF268 cells assessed as cell growth at 10 uM after 48 hrs by sulforhodamine B assay relative to control; settings: SF-268, 48 h, read-out: Activity
OVCAR-5 [13] = test: Cytotoxicity against human OVCAR5 cells assessed as growth inhibition after 48 hrs by sulforhodamine B assay; settings: OVCAR-5, 48 h
OVCAR-5 [14] = test: Cytotoxicity against human OVCAR5 cells assessed as cell growth at 1 uM after 48 hrs by sulforhodamine B assay relative to control; settings: OVCAR-5, 48 h, read-out: Activity
SK-MEL-2 = test: Cytotoxicity against human SK-MEL-2 cells assessed as growth inhibition after 48 hrs by sulforhodamine B assay; settings: SK-MEL-2, 48 h
NCI-H460 = test: Cytotoxicity against human NCI-H460 cells assessed as cell growth at 0.01 uM after 48 hrs by sulforhodamine B assay relative to control; settings: NCI-H460, 48 h, read-out: Activity
TK-10 = test: Cytotoxicity against human TK10 cells assessed as growth inhibition after 48 hrs by sulforhodamine B assay; settings: TK-10, 48 h
SK-MEL-28 = test: Cytotoxicity against human SK-MEL-28 cells assessed as cell growth at 0.1 uM after 48 hrs by sulforhodamine B assay relative to control; settings: SK-MEL-28, 48 h, read-out: Activity
786-0 = test: Cytotoxicity against human 786-0 cells assessed as cell growth at 10 uM after 48 hrs by sulforhodamine B assay relative to control; settings: 786-0, 48 h, read-out: Activity
MDA-MB-468 = test: Cytotoxicity against human MDA-MB-468 cells assessed as cell growth at 1 uM after 48 hrs by sulforhodamine B assay relative to control; settings: MDA-MB-468, 48 h, read-out: Activity
HT-29 = test: Cytotoxicity against human HT-29 cells assessed as cell growth at 0.01 uM after 48 hrs by sulforhodamine B assay relative to control; settings: HT-29, 48 h, read-out: Activity

COc1ccc(C(=O)/C=C/c2cc(-c3cc(OC)c(OC)c(OC)c3)n[nH]2)cc1OC showed a growth at 100 µM (ACHN [1]) of -91%, a growth at 10 µM (ACHN [2]) of -95% and a growth at 0.01 µM (HOP-62) of 101%. For the same compound, the growth at 0.01 µM (UACC-62) was 98%, the growth at 1 µM (T47D [3]) was 75% and the growth at 0.01 µM (NCI/ADR-RES) was 99%. For the same compound, the growth at 1 µM (Malme-3M [4]) was 106%, the LC50 (ACHN [5]) was 5.75 µM and the TGI (ACHN [5]) was 3.09 µM. The growth at 10 µM (T47D [6]) was -42%, the growth at 10 µM (PC-3) was -88% and the LC50 (concentration killing 50% of cells) (K562) was > 100 µM. For the same compound, the TGI (K562) was 7.12 µM, the growth at 0.01 µM (HCT-116) was 99% and the LC50 (COLO 205) was 5.92 µM. The TGI (COLO 205) was 3.21 µM, the TGI (NCI-H226 [7]) was 3.32 µM and the growth at 1 µM (NCI-H226 [8]) was 89%. For the same compound, the LC50 (U-251) was 4.99 µM, the TGI (U-251) was 2.48 µM and the growth at 1 µM (BT-549 [9]) was 76%. For the same compound, the growth at 0.1 µM (RPMI-8226) was 79%, the growth at 1 µM (HL-60(TB)) was 67% and the growth at 0.01 µM (M14) was 97%. The growth at 0.1 µM (DU-145) was 101%, the growth at 0.01 µM (MCF7) was 89% and the growth at 10 µM (BT-549 [10]) was -88%. For the same compound, the growth at 0.01 µM (SNB-19) was 91%, the LC50 (Malme-3M [11]) was 6.79 µM and the TGI (Malme-3M [11]) was 3.68 µM. The growth at 0.1 µM (BT-549 [12]) was 90%, the growth at 10 µM (SF-268) was -60% and the LC50 (OVCAR-5 [13]) was 5.75 µM. For the same compound, the TGI (OVCAR-5 [13]) was 3.03 µM, the growth at 1 µM (OVCAR-5 [14]) was 86% and the LC50 (concentration killing 50% of cells) (SK-MEL-2) was 6.68 µM. For the same compound, the TGI (SK-MEL-2) was 3.51 µM, the growth at 0.01 µM (NCI-H460) was 103% and the LC50 (TK-10) was 5.1 µM. The TGI (TK-10) was 2.6 µM, the growth at 0.1 µM (SK-MEL-28) was 104% and the growth at 10 µM (786-0) was -88%. For the same compound, the growth at 1 µM (MDA-MB-468) was 45% and the growth at 0.01 µM (HT-29) was 100%.
